Test results from patent publication US20040171688A1, “Carboxylic acids and derivatives thereof and pharmaceutical compositions containing them” (priority 1997, published 2004).

Columns and labels:
[1] = target: T1, HNF-4α (Rattus norvegicus, UniProt P22449); experiment: Ligand binding assay with [3H]palmitoyl(16:0)-CoA on recombinant GST-HNF-4α(LBD) or His-HNF-4α
T1 construct: GST-HNF-4α(LBD) fusion protein consisting of amino acids 96-455 of wild type HNF-4α fused to GST; fused on or other part: Glutathione-S-transferase (GST) at the N-terminus of the LBD construct; 6-histidine tag on the full-length construct
T1 sequence (P22449 105-464 isoform P22449-2 limits assumed): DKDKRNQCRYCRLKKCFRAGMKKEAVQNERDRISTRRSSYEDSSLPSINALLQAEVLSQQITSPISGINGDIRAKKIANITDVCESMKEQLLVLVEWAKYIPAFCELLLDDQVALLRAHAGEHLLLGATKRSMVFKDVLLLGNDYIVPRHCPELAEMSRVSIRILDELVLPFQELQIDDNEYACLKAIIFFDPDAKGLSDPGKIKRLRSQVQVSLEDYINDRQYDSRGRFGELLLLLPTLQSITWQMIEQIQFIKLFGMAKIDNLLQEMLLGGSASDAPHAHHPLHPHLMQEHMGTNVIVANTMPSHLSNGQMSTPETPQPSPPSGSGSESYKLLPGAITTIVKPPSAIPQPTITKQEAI
Experimental: a. […] The respective recombinant proteins are incubated to equilibrium with [^3H]palmitoyl(16:0)-CoA (0.05 μCi) and with increasing nonlabeled palmitoyl(16:0)-CoA as indicated.
b. […] The respective recombinant proteins are incubated with 8 nM of [^3H]palmitoyl(16:0)-CoA (60 Ci/mmol) and with increasing nonlabeled myristoyl(14:0)-CoA as indicated. Percent bound refers to radiolabeled [^3H]palmitoyl(16:0)-CoA in the bound fraction. […] Percent bound refers to radiolabeled [^3H]palmitoyl(16:0)-CoA in the bound fraction.
Rat HNF-4α1 cDNA(pLEN4S)^1 was subcloned into the glutathione-S-transferase (GST) encoding pGEX-2T plasmid (Pharmacia) and the resultant plasmid was cleaved with smaI and AccI and religated to yield the GST-HNF-4α(LBD) fusion plasmid. […] The full length HNF-4α1 cDNA cloned into 6His-pET11d vector was expressed in E.coli BL21 (DE3)plysS.
Recombinant GST-HNF-4α(LBD) (100 pmol) or His-HNF-4α (100 pmol) were incubated for 60 min at 22° C. with [^3H]palmitoyl(16:0)-CoA (American RadiolabeledChemicals) in 100 μl of 10 mM phosphate buffer (pH 7.4). Competitor ligands or solvent carrier were added as indicated. Free and HNF-4α bound ^3[H]palmitoyl(16:0)-CoA were separated by […] and bound ligand was quantified by liquid scintillation counting. Nonspecific binding of [^3H]palmitoyl(16:0)-CoA was determined by its binding to the GST moiety or to carbonic anhydrase as nonrelevant protein.
Binding was exemplified with either the ligand binding domain of HNF-4α fused to glutathione-s-transferase (GST-HNF-4α(LBD)) or the full length HNF-4α protein tagged by 6 histidines (His-HNF-4α).

[2] = target: T2, HNF-4α (Rattus norvegicus, UniProt P22449); experiment: In vitro transcription assay induced by His-HNF-4α with HeLa nuclear extract; assay type: biochemical; set-up: The full length HNF-4α1 cDNA cloned into 6His-pET11d vector was expressed in E.coli BL21 (DE3)plysS; 6His; made in house; host or cells: E. coli BL21 (DE3)plysS
T2 sequence (P22449 1-464 isoform P22449-2): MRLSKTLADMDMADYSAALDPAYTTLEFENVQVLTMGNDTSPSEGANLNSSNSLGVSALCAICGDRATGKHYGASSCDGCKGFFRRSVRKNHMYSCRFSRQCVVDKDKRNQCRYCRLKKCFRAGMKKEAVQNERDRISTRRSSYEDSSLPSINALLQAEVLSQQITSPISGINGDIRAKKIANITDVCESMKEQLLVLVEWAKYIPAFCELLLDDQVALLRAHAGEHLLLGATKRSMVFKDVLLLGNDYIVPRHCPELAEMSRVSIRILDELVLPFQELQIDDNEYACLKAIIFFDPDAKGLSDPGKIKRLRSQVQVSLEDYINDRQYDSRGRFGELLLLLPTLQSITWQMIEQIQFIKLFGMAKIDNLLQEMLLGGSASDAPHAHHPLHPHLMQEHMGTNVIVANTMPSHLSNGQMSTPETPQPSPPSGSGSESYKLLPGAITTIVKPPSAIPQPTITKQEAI
Experimental: a. Representative experiments showing in vitro transcription of the test template in the presence of increasing concentrations of His-HNF-4I and in the absence (lanes 1-3, 7-9) or presence of 10 μM of added palmitoyl(16:0)-CoA (lanes 4-6) or stearoyl(18:0)-CoA (lanes 10,11) as indicated. Correctly initiated transcripts of the test and control templates are denoted by (→) and ? , respectively.
b. HNF-4I-induced in vitro transcription in the absence (empty bars) or presence of 10 μM each of added palmitoyl(16:0)-CoA (filled bars) or stearoyl(18:0)-CoA (hatched bars). Fold transcription indicates the ratio of specific transcript produced by the test template over transcript from the control template normalized to the ratio observed without HNF-4a. The figure summarizes 5 independent experiments for each acyl-CoA. *-Significant as compared with the respective value in the absence of added ligand.
Reaction mixture contained 20 mM Hepes-KOH (pH 7.9), 5 mM MgCl2, 60 mM KCl, 8% glycerol, 2 mM DTT, 1 mM 3′-O-methyl-GTP, 10 units of T1RNase, 20 units of RNasin, 0.5 μg sonicated salmon sperm DNA and His-HNF-4α and test ligand as indicated. The mixture was preincubated for 30 min at 22° C. followed by adding 10 ng of pAdML200 control template consisting of the adenovirus major-late promoter (−400/+10) linked to a 200 bp G-less cassette and 200 ng of the test template consisting of three C3P copies of the apo CIII promoter sequence (−87/−66) upstream to a synthetic ovalbumin TATA box promoter in front of a 377 bp-G-less cassette. The mixture was further preincubated for 10 min at 22° C. followed by adding 40 μg of HeLa nuclear extract with additional preincubation for 30 min at 30° C. 0.5-mM ATP, 0.5 mM CTP, 25 μM UTP, and 10 μCi of [α-^32P]UTP (s.a. […], Amersham) were then added and the complete reaction mixture was incubated for 45 min at 30° C. in a final volume of 25 μl. The reaction was terminated by adding 175 μl of stop mix (0.1 M sodium acetate (pH 5.2), 10 mM EDTA, 0.1% SDS, 200 μg/ml tRNA) followed by phenol extraction and ethanol precipitation. RNA was resuspended in sample buffer containing 80% formamide and 10 mM Tris-HCl (pH 7.4) and separated on 5% polyacrylamide gel containing 7 M urea in TBE. Correctly initiated transcripts were quantitated by PhosphorImager analysis. The test DNA template was constructed by inserting into pC2AT19 plasmid a PCR-amplified oligonucleotide prepared by using the (C3P)3-TK-CAT plasmid as template and consisting of three copies of the C3P element of the Apo CIII promoter sequence (−87/−66) having an ECoRI and SSTI sites at the 5′ and 3′ ends, respectively. The resultant plasmid was cleaved with sphI and sacI and ligated to a synthetic oligonucleotide (5′-CGAGGTCCAC-[…]-3′) containing sequences of the HSV thymidine kinase promoter (−41/−29) and of the chicken ovalbumin promoter (−33/−21).
The effect of agonistic and antagonistic HNF-4α-ligands was further evaluated by analyzing the in vitro transcription rate, catalyzed by added HeLa nuclear extract and induced by recombinant HNF-4α, of a test template consisting of a 377 bp G-less cassette promoted by sequences of the HSV thymidine kinase and chicken ovalbumin promoters and enhanced by three C3P copies of the apo Clil gene promoter. Transcriptional activation by HNF-4α was evaluated in the presence and in the absence of added representative long chain fatty acyl-CoAs. […]

[3] = dietary fatty acid; cited from earlier work
[4] = target: T2, HNF-4α; experiment: Transfection assay: COS-7 cells cotransfected with (C3P)3-TK-CAT reporter and pSG5-HNF-4α; assay type: cell-based; set-up: expressed in transfected cells; host or cells: COS-7; settings: free fatty acids added to culture medium of COS-7 cells (FIG. 4a)
Experimental: a. […] Fold induction of CAT activity by transfected HNF-4I is determined by evaluating CAT activity in the presence of pSG5-HNF-4I as compared with pSG5 plasmid and as function of respective fatty acids added to the culture medium as indicated. The figure summarizes 3-4 independent experiments for each fatty acid. Mean ± S.E.
b. […] Fold induction refers to CAT activity in cells incubated with 3,3,12,12-tetramethyl-tetradecanedioic acid (∘), 3,3,14,14-tetramethyl-hexadecanedioic acid (□) and 3,3,16,16-tetramethyl-octadecanedioic acid (Δ) proligands normalized to the activity in cells incubated in the absence of added proligands.
COS-7 cells cotransfected for 6 h with the (C3P)3-TK-CAT reporter plasmid (5 μg) and with either the pSG5-HNF-4α expression plasmid ([…]) or the pSG5 plasmid (0.025 μg) added by calcium phosphate precipitation were cultured in serum free medium with fatty acids (complexed with albumin in a molar ratio of 6:1) added as indicated. β-Galactosidase expression vector pRSGAL (1 μg) added to each precipitate served as an internal control for transfection. The (C3P)3-TK-CAT construct was prepared by inserting a synthetic oligonucleotide encompassing the (−87/−66) Apo CIII promoter sequence (5′-[…]-3′) flanked by HindIII restriction site into pBLCAT2^47 upstream of the −105 bp thymidine kinase promoter. The construct containing three copies of the synthetic oligonucleotide in the direct orientation was selected and confirmed by sequencing.
The intracellular effect of HNF-4α ligands on HNF-4α mediated transcription was evaluated in COS-7 cells cotransfected with an expression vector for HNF-4α and with a CAT reporter plasmid driven by a thymidine kinase promoter and enhanced by one to three C3P copies of the apo CIII gene promoter. Transfected cells were incubated in the presence of free fatty acids and xenobiotic amphipathic carboxylates representing agonistic or antagonistic HNF-4α proligands.

[5] = dietary fatty acid; cited from earlier work; remark: listed apart in the source

Row | SMILES | maximal binding ([1]; Scatchard analysis) | binding ratio at saturation ([1]; at saturation (FIG. 1A)) | EC50 ([1]; competition with 8 nM [3H]palmitoyl(16:0)-CoA, GST-HNF-4α(LBD) or His-HNF-4α, read-out: EC50 (50% specific competition)) [nM] | Kd ([1]; saturation binding of [3H]palmitoyl(16:0)-CoA, Scatchard analysis, GST-HNF-4α(LBD) or His-HNF-4α, read-out: dissociation constant (Kd)) [nM] | effect on HNF-4α induced in vitro transcription ([2]; 10 μM added acyl-CoA (FIG. 3)) | HNF-4α transcriptional activity, agonist/antagonist character (summary) ([2]; summary statement of Example 4) | plasma VLDL-, LDL- and HDL-cholesterol [3] | effect on HNF-4α dependent transcription (CAT activity) [4] | blood lipids [3] | factor VII content and blood coagulability [5]
1 | CCCCCCCCCCCCCCCC(=O)SCCNC(=O)CCNC(=O)[C@H](O)C(C)(C)COP(=O)(O)OP(=O)(O)OC[C@H]1O[C@@H](n2cnc3c(N)ncnc32)[C@H](O)[C@@H]1OP(=O)(O)O [Palmitoyl(16:0)-CoA, reference compound] | 1 mol palmitoyl(16:0)-CoA/mol HNF-4I | ~1 mole of fatty acyl-CoA/mole of HNF-4α | 2600 | 2600 | activated | activators |  |  |  | 
2 | CCCCCCCCCCCCCC(=O)O [myristic(14:0), myristic(14:0) acid] |  |  |  |  |  |  | increase | dose dependent activation |  | 
3 | CCCCCCCCCCCCCCCCCC(=O)O [stearic(18:0), stearic(18:0) acid] |  |  |  |  |  |  |  | suppressive | lowering | decrease
